From patent publication US10150764B2, “Substituted benzene compounds” (Epizyme, Inc., priority 2013, dated 2018)
Where a name gives a salt, the structure may show the parent alone.

Columns and labels:
[1] = target: wild-type EZH2 (PRC2 enzyme) (Homo sapiens (Human), UniProt Q15910); experiment: PRC2 enzyme assay on peptide substrate, wild-type EZH2 (H3K27me0 peptide, 3H-SAM Flashplate); format: biochemical; conditions: wild-type PRC2 4 nM, read-out: WT EZH2 IC50
WSU-DLCL2 cells = experiment: Cell proliferation analysis, WSU-DLCL2 (Cell Titer Glo); format: cell-based; conditions: Homo sapiens, WSUDLCL2, 144 h, 6 days incubation, ATP readout
Text: Cell Proliferation Analysis
WSU-DLCL2 suspension cells were purchased from DSMZ (German Collection of Microorganisms and Cell Cultures, Braunschweig, Germany), RPMI/Glutamax Medium, Penicillin-Streptomycin, Heat Inactivated Fetal Bovine Serum were purchased from Life Technologies, Grand Island, N.Y., USA, V-bottom polypropylene 384-well plates were purchased from Greiner Bio-One, Monroe, N.C., USA. Cell culture 384-well white opaque plates were purchased from Perkin Elmer, Waltham, Mass., USA. Cell-Titer Glo® was purchased from Promega Corporation, Madison, Wis., USA. SpectraMax M5 plate reader was purchased from Molecular Devices LLC, Sunnyvale, Calif., USA.
WSU-DLCL2 suspension cells were maintained in growth medium (RPMI 1640 supplemented with 10% v/v heat inactivated fetal bovine serum and cultured at 37° C. under 5% CO2. Under assay conditions, cells were incubated in Assay Medium (RPMI 1640 supplemented with 20% v/v heat inactivated fetal bovine serum and 100 units/mL penicillin-streptomycin) at 37° C. under 5% CO2.
For the assessment of the effect of compounds on the proliferation of the WSU-DLCL2 cell line, exponentially growing cells were plated in 384-well white opaque plates at a density of 1250 cell/ml in a final volume of 50 μl of assay medium. A compound source plate was prepared by performing triplicate nine-point 3-fold serial dilutions in DMSO, beginning at 10 mM (final top concentration of compound in the assay was 20 μM and the DMSO was 0.2%). A 100 nL aliquot from the compound stock plate was added to its respective well in the cell plate. […] After addition of compounds, assay plates were incubated for 6 days at 37° C., 5% CO2, relative humidity >90% for 6 days. Cell viability was measured by quantization of ATP present in the cell cultures, adding 35 μl of Cell Titer Glo® reagent to the cell plates. Luminescence was read in the SpectraMax M5. The concentration inhibiting cell viability by 50% was determined using a 4-parametric fit of the normalized dose response curves.

[2] = target: EZH2 Y641F mutant (PRC2 enzyme) (Homo sapiens (Human), UniProt Q15910, Y641F); experiment: PRC2 enzyme assay on peptide substrate, EZH2 Y641F mutant (H3K27me2 peptide, 3H-SAM Flashplate); format: biochemical; conditions: Y641F mutant PRC2 4 nM
Method: Human PRC2 enzymes were purified as 4-component enzyme complexes co-expressed in Spodoptera frugiperda (sf9) cells using a baculovirus expression system. […] The EED subunit contained an N-terminal FLAG tag that was used to purify the entire 4-component complex from sf9 cell lysates.
The assays were all performed in a buffer consisting of 20 mM bicine (pH=7.6), 0.5 mM DTT, 0.005% BSG and 0.002% Tween20, prepared on the day of use. […] DMSO (1 μL) was added to columns 11, 12, 23, 24, rows A-H for the maximum signal control, and SAH, a known product and inhibitor of PRC2 (1 μL) was added to columns 11, 12, 23, 24, rows I-P for the minimum signal control. A cocktail (40 μL) containing the wild-type PRC2 enzyme and H3K27me0 peptide or any of the Y641 mutant enzymes and H3K27me2 peptide was added by Multidrop Combi (Thermo). The compounds were allowed to incubate with PRC2 for 30 min at 25° C., then a cocktail (10 μL) containing a mixture of non-radioactive and ^3H-SAM was added to initiate the reaction (final volume=51 μL). […] The assays were stopped by the addition of non-radioactive SAM (10 μL) to a final concentration of 600 μM, which dilutes the ^3H-SAM to a level where its incorporation into the peptide substrate is no longer detectable. 50 of the reaction in the 384-well polypropylene plate was then transferred to a 384-well Flashplate and the biotinylated peptides were allowed to bind to the streptavidin surface for at least 1 h before being washed three times with 0.1% Tween20 in a Biotek ELx405 plate washer. The plates were then read in a PerkinElmer TopCount platereader to measure the quantity of ^3H-labeled peptide bound to the Flashplate surface, measured as disintegrations per minute (dpm) or alternatively, referred to as counts per minute (cpm).

[3] = system: H3K27me3 in WSU-DLCL2 cells; experiment: WSU-DLCL2 methylation assay (H3K27me3 ELISA); format: cell-based, human; conditions: Homo sapiens, WSUDLCL2, 96 hours incubation, H3K27me3 normalised to total H3
Text: WSU-DLCL2 Methylation Assay
WSU-DLCL2 suspension cells were purchased from DSMZ (German Collection of Microorganisms and Cell Cultures, Braunschweig, Germany). RPMI/Glutamax Medium, Penicillin-Streptomycin, Heat Inactivated Fetal Bovine Serum, and D-PBS were purchased from Life Technologies, Grand Island, N.Y., USA. Extraction Buffer and Neutralization Buffer (5×) were purchased from Active Motif, Carlsbad, Calif., USA. Rabbit anti-Histone H3 antibody was purchased from Abcam, Cambridge, Mass., USA. Rabbit anti-H3K27me3 and HRP-conjugated anti-rabbit-IgG were purchased from Cell Signaling Technology, Danvers, Mass., USA. TMB “Super Sensitive” substrate was sourced from BioFX Laboratories, Owings Mills, Md., USA. IgG-free Bovine Serum Albumin was purchased from Jackson ImmunoResearch, West Grove, Pa., USA. PBS with Tween (10×PBST) was purchased from KPL, Gaithersburg, Md., USA. Sulfuric Acid was purchased from Ricca Chemical, Arlington, Tex., USA. Immulon ELISA plates were purchased from Thermo, Rochester, N.Y., USA. V-bottom cell culture plates were purchased from Corning Inc., Corning, N.Y., USA. V-bottom polypropylene plates were purchased from Greiner Bio-One, Monroe, N.C., USA.
WSU-DLCL2 suspension cells were maintained in growth medium (RPMI 1640 supplemented with 10% v/v heat inactivated fetal bovine serum and 100 units/mL penicillin-streptomycin) and cultured at 37° C. under 5% CO2. Under assay conditions, cells were incubated in Assay Medium (RPMI 1640 supplemented with 20% v/v heat inactivated fetal bovine serum and 100 units/mL penicillin-streptomycin) at 37° C. under 5% CO2 on a plate shaker.
WSU-DLCL2 cells were seeded in assay medium at a concentration of 50,000 cells per mL to a 96-well V-bottom cell culture plate with 200 μL per well. […] Plates were incubated on a titer-plate shaker at 37° C., 5% CO2 for 96 hours. After four days of incubation, plates were spun at 241×g for five minutes and medium was aspirated gently from each well of cell plate without disturbing cell pellet. Pellet was resuspended in: 200 μL DPBS and plates were spun again at 241×g for five minutes. The supernatant was aspirated and cold (4° C.) Extraction buffer (100 μL) was added per well. Plates were incubated at 4° C. on orbital shaker for two hours. Plates were spun at 3427×g×10 minutes. Supernatant (80 μL per well) was transferred to its respective well in 96 well V-bottom polypropylene plate. Neutralization Buffer 5× (20 μL per well) was added to V-bottom polypropylene plate containing supernatant. V-bottom polypropylene plates containing crude histone preparation (CHP) were incubated on orbital shaker×five minutes. Crude Histone Preparations were added (2 μL per well) to each respective well into duplicate 96 well ELISA plates containing 100 μL Coating Buffer (1×PBS+BSA 0.05% w/v). Plates were sealed and incubated overnight at 4° C. The following day, plates were washed three times with 300 μL per well 1×PBST. […] For H3K27me3 detection, 100 μL of HRP conjugated anti-rabbit IgG antibody diluted to 1:4000 in ELISA diluent was added per well. Plates were incubated at room temperature for 90 minutes. […] TMB substrate 100 μL was added per well. Histone H3 plates were incubated for five minutes at room temperature. H3K27me3 plates were incubated for 10 minutes at room temperature. The reaction was stopped with sulfuric acid 1N (100 μL per well). Absorbance for each plate was read at 450 nm.
Each plate included eight control wells DMSO only treatment (Minimum Inhibition) as well as eight control wells for maximum inhibition (Background wells).
The average of the ratio values for each control type was calculated and used to determine the percent inhibition for each test well in the plate. Test compound was serially diluted three-fold in DMSO for a total of ten test concentrations, beginning at 25 μM.

Sequence of EZH2 Y641F mutant (PRC2 enzyme) (Q15910 whole entry Y641F): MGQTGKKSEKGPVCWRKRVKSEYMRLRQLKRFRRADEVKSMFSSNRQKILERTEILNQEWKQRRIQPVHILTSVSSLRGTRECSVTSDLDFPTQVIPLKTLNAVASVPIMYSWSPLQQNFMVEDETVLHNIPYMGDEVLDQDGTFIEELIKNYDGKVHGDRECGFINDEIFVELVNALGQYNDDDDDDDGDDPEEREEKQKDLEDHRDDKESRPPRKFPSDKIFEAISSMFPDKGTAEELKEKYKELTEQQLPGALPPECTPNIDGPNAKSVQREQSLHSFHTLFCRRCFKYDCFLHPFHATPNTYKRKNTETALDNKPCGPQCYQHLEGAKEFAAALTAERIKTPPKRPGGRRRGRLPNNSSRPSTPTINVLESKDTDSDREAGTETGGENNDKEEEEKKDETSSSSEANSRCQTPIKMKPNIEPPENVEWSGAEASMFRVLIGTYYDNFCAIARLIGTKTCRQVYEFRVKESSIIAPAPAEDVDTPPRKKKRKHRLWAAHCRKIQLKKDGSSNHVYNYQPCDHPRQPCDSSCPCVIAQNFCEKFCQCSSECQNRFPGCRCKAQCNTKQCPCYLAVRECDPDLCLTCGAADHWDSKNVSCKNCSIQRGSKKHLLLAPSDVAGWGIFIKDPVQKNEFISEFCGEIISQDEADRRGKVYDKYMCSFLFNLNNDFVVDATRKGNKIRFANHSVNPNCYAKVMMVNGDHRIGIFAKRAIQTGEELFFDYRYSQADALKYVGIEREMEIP
Sequence of EZH2 Y641F mutant (PRC2 enzyme) (O75530 whole entry partner): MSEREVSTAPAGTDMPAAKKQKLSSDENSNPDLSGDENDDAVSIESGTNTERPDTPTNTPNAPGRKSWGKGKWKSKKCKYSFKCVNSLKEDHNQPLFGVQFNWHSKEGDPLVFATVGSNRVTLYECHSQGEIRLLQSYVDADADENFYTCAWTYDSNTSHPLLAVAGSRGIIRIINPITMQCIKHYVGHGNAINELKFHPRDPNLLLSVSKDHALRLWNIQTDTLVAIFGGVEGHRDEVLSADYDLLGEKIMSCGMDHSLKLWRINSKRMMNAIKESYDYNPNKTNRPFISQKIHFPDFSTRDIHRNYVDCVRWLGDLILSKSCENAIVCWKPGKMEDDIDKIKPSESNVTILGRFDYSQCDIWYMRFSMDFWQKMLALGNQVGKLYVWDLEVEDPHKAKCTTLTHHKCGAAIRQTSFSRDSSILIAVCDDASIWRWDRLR
Sequence of EZH2 Y641F mutant (PRC2 enzyme) (Q15022 whole entry partner): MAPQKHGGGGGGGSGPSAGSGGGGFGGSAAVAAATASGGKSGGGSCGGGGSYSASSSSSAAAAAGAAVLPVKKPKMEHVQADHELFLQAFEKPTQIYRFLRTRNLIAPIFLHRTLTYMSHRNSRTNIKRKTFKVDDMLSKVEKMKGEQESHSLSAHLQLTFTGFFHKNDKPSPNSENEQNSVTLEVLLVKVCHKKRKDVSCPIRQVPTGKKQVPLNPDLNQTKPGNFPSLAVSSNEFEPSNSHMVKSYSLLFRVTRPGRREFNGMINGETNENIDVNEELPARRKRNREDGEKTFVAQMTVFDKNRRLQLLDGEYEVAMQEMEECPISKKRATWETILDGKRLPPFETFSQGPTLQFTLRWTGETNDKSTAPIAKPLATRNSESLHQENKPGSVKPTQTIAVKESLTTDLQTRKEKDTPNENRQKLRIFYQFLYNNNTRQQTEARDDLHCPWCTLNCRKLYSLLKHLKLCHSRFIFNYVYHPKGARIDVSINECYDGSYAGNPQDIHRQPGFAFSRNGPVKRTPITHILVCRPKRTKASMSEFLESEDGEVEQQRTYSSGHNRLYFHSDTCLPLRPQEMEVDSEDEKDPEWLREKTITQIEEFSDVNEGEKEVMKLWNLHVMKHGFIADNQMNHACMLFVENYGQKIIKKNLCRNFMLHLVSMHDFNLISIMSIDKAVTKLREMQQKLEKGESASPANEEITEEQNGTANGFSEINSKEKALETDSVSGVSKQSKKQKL
Sequence of EZH2 Y641F mutant (PRC2 enzyme) (Q09028 whole entry partner): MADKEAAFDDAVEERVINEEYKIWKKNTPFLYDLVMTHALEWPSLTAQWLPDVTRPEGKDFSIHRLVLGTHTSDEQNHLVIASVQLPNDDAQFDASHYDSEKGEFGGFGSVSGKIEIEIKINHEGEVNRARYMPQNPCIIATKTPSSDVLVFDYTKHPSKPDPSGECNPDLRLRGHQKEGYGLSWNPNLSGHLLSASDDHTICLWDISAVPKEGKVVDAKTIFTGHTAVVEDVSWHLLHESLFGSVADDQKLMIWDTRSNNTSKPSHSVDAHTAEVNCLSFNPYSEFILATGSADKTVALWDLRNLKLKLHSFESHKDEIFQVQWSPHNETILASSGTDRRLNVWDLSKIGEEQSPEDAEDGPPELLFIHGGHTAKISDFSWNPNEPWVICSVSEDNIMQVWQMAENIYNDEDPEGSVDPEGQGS
Sequence of wild-type EZH2 (PRC2 enzyme) (Q15910 whole entry): as the sequence (Q15910 whole entry Y641F) above, with F641Y counted along it
Sequence of wild-type EZH2 (PRC2 enzyme) (O75530 whole entry partner): as the sequence (O75530 whole entry partner) above
Sequence of wild-type EZH2 (PRC2 enzyme) (Q15022 whole entry partner): as the sequence (Q15022 whole entry partner) above
Sequence of wild-type EZH2 (PRC2 enzyme) (Q09028 whole entry partner): as the sequence (Q09028 whole entry partner) above

Structure (SMILES)	IC50 [1] [nM]	IC50 [2] [nM]	IC50 (WSU-DLCL2 cells) [nM]	IC50 [3] [nM]
CCN(c1cc(Cl)cc(C(=O)NCc2c(C)[nH]n(C)c2=O)c1C)[C@@H]1COC[C@H]1OC (relative stereo) [Compound 42, 5-chloro-N-((2,5-dimethyl-3-oxo-2,3-dihydro-1H-pyrazol-4-yl)methyl)-3-(ethyl((trans)-4-methoxytetrahydrofuran-3-yl)amino)-2-methylbenzamide]	> 50000	–	> 20000	–
CCN(c1cc(Cl)cc(C(=O)NCc2c(CCN(C)C)cc3n(c2=O)NCC3)c1C)[C@H]1CC[C@H](N(C)C)CC1 [Compound 1, 5-chloro-3-(((trans)-4-(dimethylamino)cyclohexyl)(ethyl)amino)-N-((5-(2-(dimethylamino)ethyl)-7-oxo-1,2,3,7-tetrahydropyrazolo[1,5-a]pyridin-6-yl)methyl)-2-methylbenzamide]	–	–	850	–
CCN(c1cc(Cl)cc(C(=O)NCc2c(C)[nH][nH]c2=O)c1C)[C@H]1CC[C@H](N(C)C)CC1 [Compound 32, 5-chloro-3-(ethyl((trans)-4-(dimethylamino)cyclohexyl)amino)-2-methyl-N-((5-methyl-3-oxo-2,3-dihydro-1H-pyrazol-4-yl)methyl]benzamide Formate]	68	15	11500	15400
CCn1[nH]c(C)c(CNC(=O)c2cc(Cl)cc(N(CC)[C@H]3CC[C@H](N(C)C)CC3)c2C)c1=O [Compound 36, 5-chloro-3-(((trans)-4-(dimethylamino)cyclohexyl)(ethyl)amino)-N-((2-ethyl-5-methyl-3-oxo-2,3-dihydro-1H-pyrazol-4-yl)methyl)-2-methylbenzamide]	829	114	> 20000	7970
CCN(c1cc(Cl)cc(C(=O)NCc2c(=O)[nH]n3cccnc23)c1C)[C@H]1CC[C@H](N(C)C)CC1 [Compound 51, 5-chloro-3-(((trans)-4-(dimethylamino)cyclohexyl)(ethyl)amino)-2-methyl-N-((2-oxo-1,2-dihydropyrazolo-[1,5-a]-pyrimidin-3-yl)methyl)benzamide]	2870	573	> 20000	–
CCN(c1cc(-c2ccc(OCCOC)cc2)cc(C(=O)NCc2c(C)n(C)[nH]c2=O)c1C)[C@H]1CC[C@H](N(C)C)CC1 [Compound 59, N-((1,5-dimethyl-3-oxo-2,3-dihydro-1H-pyrazol-4-yl)methyl)-5-(((trans)-4-(dimethylamino)cyclohexyl)(ethyl)amino)-4′-(2-methoxyethoxy)-4-methyl-[1,1′-biphenyl]-3-carboxamide]	–	–	> 20000	> 50000
CCn1nc(OC)c(CNC(=O)c2cc(Cl)cc(N(CC)[C@H]3CC[C@H](N(C)Cc4ccc(OC)cc4)CC3)c2C)c1C [Compound 70, 5-chloro-3-(ethyl((trans)-4-((4-methoxybenzyl)-(methyl)-amino)-cyclohexyl)-amino)-N-((1-ethyl-3-methoxy-5-methyl-1H-pyrazol-4-yl)methyl)-2-methylbenzamide]	39	12	3610	4060
CCN(c1cc(Cl)cc(C(=O)NCc2c(C)nn(C)c2OC)c1C)[C@H]1CC[C@H](N(C)C)CC1 [Compound 91, 5-chloro-N-((5-methoxy-1,3-dimethyl-1H-pyrazol-4-yl)methyl)-3-(((trans)-4-(dimethylamino)cyclohexyl)(ethyl)amino)-2-methylbenzamide]	7450	1170	–	> 50000
CCN(c1cc(Cl)cc(C(=O)NCc2c(N3CCCCC3)n(C)[nH]c2=O)c1C)[C@H]1CC[C@H](N(C)C)CC1 [Compound 93, 5-chloro-3-(ethyl[(trans)-4-(dimethylamino)cyclohexyl]amino)-2-methyl-N-([1-methyl-3-oxo-5-(piperidin-1-yl)-2,3-dihydro-1H-pyrazol-4-yl]methyl)benzamide]	9.71	14.4	–	3550

More lines, main results first:

IC50 [1] [nM]	IC50 [2] [nM]	Structure (SMILES)	IC50 (WSU-DLCL2 cells) [nM]	IC50 [3] [nM]
223	110	CCN(c1cc(Cl)cc(C(=O)NCc2c(C)[nH]n(C)c2=O)c1C)[C@H]1CC[C@H](N(C)C)CC1 [Compound 34, 5-chloro-N-((2,5-dimethyl-3-oxo-2,3-dihydro-1H-pyrazol-4-yl)methyl)-3-(((trans)-4-(dimethylamino)cyclohexyl)(ethyl)amino)-2-methylbenzamide]	6920	18600
267	63	CCN(c1cc(-c2ccc(OCCOC)cc2)cc(C(=O)NCc2c(C)[nH]n(C)c2=O)c1C)[C@H]1CC[C@H](N(C)C)CC1 [Compound 35, N-((2,5-dimethyl-3-oxo-2,3-dihydro-1H-pyrazol-4-yl)methyl)-5-(((trans)-4-(dimethylamino)cyclohexyl)(ethyl)amino)-4′-(2-methoxyethoxy)-4-methyl-[1,1′-biphenyl]-3-carboxamide]	> 20000	17900
3370	265	CCc1[nH]n(C)c(=O)c1CNC(=O)c1cc(Cl)cc(N(CC)[C@H]2CC[C@H](N(C)C)CC2)c1C [Compound 38, 5-chloro-3-(((trans)-4-(dimethylamino)cyclohexyl)(ethyl)amino)-N-((5-ethyl-2-methyl-3-oxo-2,3-dihydro-1H-pyrazol-4-yl)methyl)-2-methylbenzamide]	> 20000	18100
367	30	CCn1[nH]c(=O)c(CNC(=O)c2cc(Cl)cc(N(CC)[C@H]3CC[C@H](N(C)C)CC3)c2C)c1C [Compound 52, 5-chloro-3-(((trans)-4-(dimethylamino)cyclohexyl)(ethyl)amino)-N-((1-ethyl-5-methyl-3-oxo-2,3-dihydro-1H-pyrazol-4-yl)methyl)-2-methylbenzamide]	7340	3040
25	11	CCN(c1cc(Cl)cc(C(=O)NCc2c(C)n(C)[nH]c2=O)c1C)[C@H]1CC[C@H](N(C)Cc2ccc(OC)cc2)CC1 [Compound 56, 5-chloro-N-((1,5-dimethyl-3-oxo-2,3-dihydro-1H-pyrazol-4-yl)methyl)-3-(ethyl((trans)-4-((4-methoxybenzyl)(methyl)amino)cyclohexyl)amino)-2-methylbenzamide]	10700	4680
20	10	CCN(c1cc(Cl)cc(C(=O)NCc2c(C)n(C)[nH]c2=O)c1C)[C@H]1CC[C@H](N(C)Cc2cccc(OC)c2)CC1 [Compound 57, 5-chloro-N-((1,5-dimethyl-3-oxo-2,3-dihydro-1H-pyrazol-4-yl)methyl)-3-(ethyl((trans)-4-((3-methoxybenzyl)(methyl)amino)cyclohexyl)amino)-2-methylbenzamide]	6050	6160
1540	342	CCCN(c1cc(-c2ccc(OCCOC)cc2)cc(C(=O)NCc2c(C)n(C)[nH]c2=O)c1C)[C@H]1CC[C@H](N(C)C)CC1 [Compound 58, N-((1,5-dimethyl-3-oxo-2,3-dihydro-1H-pyrazol-4-yl)methyl)-5-(((trans)-4-(dimethylamino)cyclohexyl)(propyl)amino)-4′-(2-methoxyethoxy)-4-methyl-[1,1′-biphenyl]-3-carboxamide]	14300	–
2110	695	CCN(c1cc(-c2ccc(OCCOC)cc2)cc(C(=O)NCc2c(C)n(C)[nH]c2=O)c1C)[C@H]1CC[C@H](N(C)CCOC)CC1 [Compound 60, N-((1,5-dimethyl-3-oxo-2,3-dihydro-1H-pyrazol-4-yl)methyl)-5-(ethyl((trans)-4-((2-methoxyethyl)(methyl)amino)cyclohexyl)amino)-4′-(2-methoxyethoxy)-4-methyl-[1,1′-biphenyl]-3-carboxamide]	13500	–
46	12	CCn1[nH]c(=O)c(CNC(=O)c2cc(Cl)cc(N(CC)[C@H]3CC[C@H](N(C)Cc4cccc(OC)c4)CC3)c2C)c1C [Compound 63, 5-chloro-3-(ethyl ((trans)-4-((3-methoxybenzyl)-(methyl)-amino)-cyclohexyl)amino)-N-((1-ethyl-5-methyl-3-oxo-2,3-dihydro-1H-pyrazol-4-yl)methyl)-2-methylbenzamide]	1550	> 50000
